These are literature values, as cited in patent publication US20040047835A1, “Combinatorial drug therapy using polymer drug conjugates” (priority 2002, published 2004).

One data set relates to mammary MCa-4 tumor. The conditions noted are these: mammary MCa-4 tumor model; radiation preceded drug injection.
In a further data set the test system is tumor-bearing hosts. The conditions noted are these: compared with free (unconjugated) paclitaxel.
The subject of another data set is ovarian Oca-1 carcinoma. The conditions noted are these: equivalent paclitaxel dose of 60 mg/kg 24 h after tumor irradiation; versus radiation and paclitaxel.

Like-named read-outs stand apart in the source and are kept apart here.

`CC(=O)O[C@H]1C(=O)[C@@]2(C)[C@H]([C@H](OC(=O)c3ccccc3)[C@]3(O)C[C@H](OC(=O)[C@H](O)[C@@H](NC(=O)c4ccccc4)c4ccccc4)C(C)=C1C3(C)C)[C@]1(OC(C)=O)CO[C@@H]1C[C@@H]2O` [paclitaxel, reference compound]: the “effect on cell cycle” value in the data set on cell cycle is given as “induced a G2/M arrest”. In addition, in the data set with mammary MCa-4 tumor, the “interaction of combined radiation and drug” value is on record as “additive or sub-additive interaction”.

For the molecule “poly(L-glutamic acid)-paclitaxel [PG-TXL]”, the “effect on cell cycle” value with cell cycle is “induced a G2/M arrest”. Also, in the data set on mammary MCa-4 tumor, the “interaction of combined radiation and drug” value is given as “synergistic interaction”. Further, the “anti-tumor activity / efficacy” value in the data set on tumor-bearing hosts is listed as “increased efficacy”; with tumor-bearing hosts (listed as PGTXL) it was “superior anti-tumor activity”. The “tumor growth delay, combined with radiation” value in the data set on ovarian Oca-1 carcinoma is “significantly greater tumor growth delay”.
